The values that follow come from patent US9023340B2, “Wnt inhibitors for human stem cell differentiation” (ChemRegen, Inc., priority 2011, dated 2015).

SMILES strings stand for the structures.

One test relates to Wnt signaling. Kind of test: Wnt assay (Super TOPflash/Wnt3a dual-luciferase reporter in 293T cells). It is filed as cell-based. The note with it: Homo sapiens, HEK-293T, TOPflash luciferase normalized to renilla; for inhibition at 1 µM: 1000 nM compound, read-out: Wnt Assay % inh. @ 1000 nM. The protocol:
Wnt assay protocol: 293T cells were grown in DMEM-high glucose (phenol red) supplemented with 10% (v/v) FBS and 1 mM L-glutamine. 1 million (M) cells were transfected with 1 μg Super(7×)TOPflash (Addgene plasmid 12456: M50 Super 8× TOPflash; 1 μg Wnt3a)—and 0.1 μg TK-Renilla-Lux (pRL-TK vector)-vectors using lipofectamine 2000 reagent according to the manufacturer's protocol. Cells were allowed to adhere for 8-10 hours, lifted with trypsin/EDTA, centrifuged, homogenized and counted before seeding 25,000 cells/well onto 96-well plates. After letting cells settle and attach for 1-2 hours in the incubator, a dose of test compound (and media/DMSO controls) was added. Plates were incubated for 18-20 hours and luciferase activities were determined using a Dual-Luciferase assay kit according to the manufacturer's instructions. Chemiluminescence was recorder on a plate reader instrument, and firefly-derived luminescence was normalized against renilla luminescence. Data were derived from at least two independent experiments, with a minimum of three replicates per condition. Non-linear regression analysis (log dose/response) was done using Prism 5 software.

In test [1] the test system is hESC H9 lines carrying MYH6-mCherry reporters. Kind of test: Human embryonic stem cell high content screening assay (cardiogenesis, MYH6-mCherry reporter). It is filed as cell-based. The settings on record: 1250 nM compound; MYH6-mCherry fluorescence readout normalized to DMSO treated wells. As for the experimental part:
Human embryonic stem cell (hESC) H9 lines carrying MYH6-mCherry reporters were maintained: in brief, cells were grown on a mouse embryonic fibroblast coated matrigel plate in Knock Out DMEM media supplemented with 20% Knock Out Serum Replacement and 8 ng/ml bFGF. For embryoid body (EB) differentiation, hESC were mechanically passaged onto gelatin-coated dishes preseeded with mouse embryonic fibroblasts. After 4 days hESC colonies were lifted off with a 10 minute 1 mg/ml collagenase IV treatment and directly differentiated in StemPro 34 with addition of 0.5 ng/ml Bmp4 from day 0-1, 10 ng/ml Bmp4, 5 ng/ml bFGF and 3 ng/ml Activin A from day 1-4. At day 4 and were dissociated gently to single cells with TrypLE. Single cells were then transferred in gelatin coated 384-well optical plates in StemPro 34 with […] FGF at a seeding density of 250,000 cells/cm^2. At this point cells were exposed to test compounds. At day 10, media with compound was removed and exchanged for a serum free media (SFM). T3, the thyroid hormone analog triiodothyronine, was added at day 10 to increase the red signal driven by the MYH6 promoter for more reliable imaging. […] For RT-qPCR analysis T3 treatment was omitted to avoid interference with the biological mRNA expression of MYH6. Media was changed to PBS at day 14 and red fluorescence was imaged on an InCell 1000 high throughput microscope. For the quantification of cardiac induction, image analysis was done with the Cyteseer Image Analysis Software package by measuring the total area and intensity of the MYH6-mCherry reporter in each well. The MYH6-expression levels indicated in the graphs represent the multiplication of the total area and intensity of red fluorescence.
For toxicity assessment the hESC cell line was engineered for screening with a H2B-GFP reporter, allowing quantification of the cell number. Using Cyteseer, total GFP signal was quantified in each well. Wells with a GFP reduction of 20% or more (relative to vehicle only controls) were flagged for toxicity and were manually confirmed under a bright field microscope for evidence of cell death.
For the screens, Z scores (Z score=(average of treated−average of DMSO)/StDev of DMSO) were calculated using the fluorescence readout for each concentration normalized to DMSO treated wells. Integrated Z scores over all concentrations were calculated by adding the Z scores of the 3 concentrations tested. Table 2 reports Z scores at a compound concentration of 1250 nM.

For the compound `O=C1c2ccccc2-c2cccc(NC(=O)[C@H]3CC[C@H](N4C(=O)[C@@H]5[C@@H]6CC[C@@H](C6)[C@@H]5C4=O)CC3)c21` [Compound 11], in the test on Wnt signaling, the IC50 was found to be 193 nM. In test [1], the “Cardiogenesis Assay Z score vs DMSO @ 1250 nM” value is reported as 42.7.
In the case of `O=C1CCCc2cccc(NC(=O)[C@H]3CC[C@H](N4C(=O)[C@@H]5[C@@H]6CC[C@@H](C6)[C@@H]5C4=O)CC3)c21` [Compound 14], in the test with Wnt signaling, the IC50 stood at 19 nM. Besides, the “Cardiogenesis Assay Z score vs DMSO @ 1250 nM” value in test [1] came to 69.6.
Take `Cc1ccncc1NC(=O)[C@H]1CC[C@H](N2C(=O)[C@@H]3[C@@H]4CC[C@@H](C4)[C@@H]3C2=O)CC1` [Compound 20]: the inhibition at 1 µM in the test with Wnt signaling is 0%.
In the case of `CC(=O)c1ccccc1NC(=O)[C@H]1CC[C@H](N2C(=O)[C@@H]3[C@@H]4CC[C@@H](C4)[C@@H]3C2=O)CC1` [Compound 3], in the test with Wnt signaling, the inhibition at 1 µM came to 91 ± 1% and the IC50 was found to be 14 nM. The “Cardiogenesis Assay Z score vs DMSO @ 1250 nM” value in test [1] was 132.9.
Compound `COC(=O)c1ccccc1NC(=O)[C@H]1CC[C@H](N2C(=O)[C@@H]3[C@@H]4CC[C@@H](C4)[C@@H]3C2=O)CC1` [Compound 10] showed an IC50 with Wnt signaling of 67 nM. For the same compound, the “Cardiogenesis Assay Z score vs DMSO @ 1250 nM” value in test [1] was 44.9.
On to `O=C1[C@@H]2[C@@H]3CC[C@@H](C3)[C@@H]2C(=O)N1[C@H]1CC[C@H](C(=O)Nc2ccnc(Cl)c2)CC1` [Compound 9], for which, in the test with Wnt signaling, the inhibition at 1 µM was 68 ± 4% and 374 nM corresponded to half-maximal inhibition (IC50).
Regarding `Cc1cncc(NC(=O)[C@H]2CC[C@H](N3C(=O)[C@@H]4[C@@H]5CC[C@@H](C5)[C@@H]4C3=O)CC2)c1` [Compound 21], the inhibition at 1 µM with Wnt signaling worked out at 49 ± 5%.
Consider `O=C1[C@@H]2[C@@H]3CC[C@@H](C3)[C@@H]2C(=O)N1[C@H]1CC[C@H](C(=O)Nc2ccc(C(F)(F)F)nc2)CC1` [Compound 8], for which, in the test on Wnt signaling, the inhibition at 1 µM worked out at 46 ± 7% and the midpoint of inhibition, the IC50, lay at 870 nM.
`O=C1[C@@H]2[C@@H]3CC[C@@H](C3)[C@@H]2C(=O)N1[C@H]1CC[C@H](C(=O)Nc2cccnc2Cl)CC1` [Compound 7] displayed an IC50 in the test with Wnt signaling of 166 nM. In addition, the “Cardiogenesis Assay Z score vs DMSO @ 1250 nM” value in test [1] is 3.1.
As for `O=C1[C@@H]2[C@@H]3CC[C@@H](C3)[C@@H]2C(=O)N1[C@H]1CC[C@H](C(=O)Nc2cncc(O)c2)CC1` [Compound 13], in the test on Wnt signaling, the midpoint of inhibition, the IC50, lay at 152 nM. Besides, the “Cardiogenesis Assay Z score vs DMSO @ 1250 nM” value in test [1] was determined as 99.2.
Regarding `O=C1[C@@H]2[C@@H]3CC[C@@H](C3)[C@@H]2C(=O)N1[C@H]1CC[C@H](C(=O)Nc2ccc(Br)cn2)CC1` [Compound 19], the inhibition at 1 µM in the test on Wnt signaling was 68 ± 4%.
As to `COc1ccc(NC(=O)[C@H]2CC[C@H](N3C(=O)[C@@H]4[C@@H]5CC[C@@H](C5)[C@@H]4C3=O)CC2)cn1` [Compound 5], in the test with Wnt signaling, the inhibition at 1 µM stood at 75 ± 2% and inhibition was half-maximal at 344 nM (IC50).
In the test with Wnt signaling, `O=C1[C@@H]2[C@@H]3CC[C@@H](C3)[C@@H]2C(=O)N1[C@H]1CC[C@H](C(=O)Nc2ccncc2)CC1` [Compound 2] had an IC50 of 47 nM. In addition, the “Cardiogenesis Assay Z score vs DMSO @ 1250 nM” value in test [1] came to 0.2.
For `O=C1[C@@H]2[C@@H]3CC[C@@H](C3)[C@@H]2C(=O)N1[C@H]1CC[C@H](C(=O)Nc2cccnc2)CC1` [Compound 1] the same measures were 42 nM and 0.6.
`Cc1ccc(NC(=O)[C@H]2CC[C@H](N3C(=O)[C@@H]4[C@@H]5CC[C@@H](C5)[C@@H]4C3=O)CC2)cn1` [Compound 6]: in the test with Wnt signaling, the inhibition at 1 µM stood at 48 ± 7% and 1380 nM corresponded to half-maximal inhibition (IC50).
As for `CC(=O)c1ccccc1NC(=O)C1CCC(N2C(=O)[C@@H]3[C@@H]4CC[C@@H](C4)[C@@H]3C2=O)CC1` (stereo partly shown) [Compound 12], in the test with Wnt signaling, the inhibition at 1 µM is 91 ± 1% and the IC50 turned out to be 23 nM. The “Cardiogenesis Assay Z score vs DMSO @ 1250 nM” value in test [1] amounted to 117.0.
Compound `CC(=O)c1ncccc1NC(=O)[C@H]1CC[C@H](N2C(=O)[C@@H]3[C@@H]4CC[C@@H](C4)[C@@H]3C2=O)CC1` [Compound 17] gave an IC50 in the test with Wnt signaling of 2 nM. The “Cardiogenesis Assay Z score vs DMSO @ 1250 nM” value in test [1] came out at 236.2.
In the test with Wnt signaling, `CC(=O)c1ccncc1NC(=O)[C@H]1CC[C@H](N2C(=O)[C@@H]3[C@@H]4CC[C@@H](C4)[C@@H]3C2=O)CC1` [Compound 18] displayed an IC50 of 287 nM. In addition, the “Cardiogenesis Assay Z score vs DMSO @ 1250 nM” value in test [1] was 0.2.
For `O=C1[C@@H]2[C@@H]3CC[C@@H](C3)[C@@H]2C(=O)N1[C@H]1CC[C@H](C(=O)Nc2ccccn2)CC1` [Compound 4] the same measures were 86 nM and 1.8.
